{"source": "paper PMC2713373", "about": "(Biochemistry, 2009)", "target": "MtmOIV (Streptomyces argillaceus, UniProt Q194P4)", "assay": "X-ray crystal structure, […] Å", "type": "binding", "conditions": "non-covalently bound, IN conformation", "data": [{"molecule": "Cc1cc2nc3c(=O)[nH]c(=O)nc-3n(C[C@H](O)[C@H](O)[C@H](O)COP(=O)(O)OP(=O)(O)OC[C@H]3O[C@@H](n4cnc5c(N)ncnc54)[C@H](O)[C@@H]3O)c2cc1C", "note": "[FAD]", "values": [{"measurement": "X-ray crystal structure, 2.9 Å", "result": "The FAD cofactor was found non-covalently bound in the crystal structure"}]}]}
